Bridges are numbered along the chain shown (N, C = ends). Roman numbers before positions name the chains, in order. Where no end group is shown, it is not given here.
How the values were obtained:
[1] = tested on: primary human calvarial osteoblasts (HCO); assay: CellTiter-Glo cytotoxicity assay in HCO cells; type: cell-based; details: 24 h
Protocol: (§1) Cytotoxicity induced by the compounds in HEK293T cells and primary human calvarial osteoblasts (HCO) (ScienCell Research Laboratories, San Diego, CA) were tested using the […]-GLO™ Luminescent Cell Viability Assay (Promega, Madison, WI). This is a luminescence-based assay that determines viable cells by measuring cellular adenosine triphosphate (ATP) production. The luciferase enzyme requires ATP to catalyze the conversion of beetle luciferin to oxyluciferin and light. Thus, luciferase activity is proportional to ATP accumulation in the cells. For this assay, 96-well flat-bottom opaque plates seeded with HEK293T cells at 5,000 cells/well and HCO cells at 3,000 cells/well in 100 μL/well of growth medium (DMEM, 10% FBS, 1× Penicillin/Streptomycin). After incubating overnight at 37° C., 5% CO2 to allow attachment, cells were treated with 1 μL/well of compound (25-0.1 μM) or DMSO vehicle and incubated an additional 24 hours. Then cells were equilibrated for 30 minutes at room temperature and 100 μL/well of […]-GLO™ Reagent was added. Plates were placed on an orbital shaker for 2 minutes and incubated at room temperature for 10 minutes to stabilize the luminescent signal, which was read immediately after on a CLARIOstar plate reader (BMG Labtech, Germany). […] The HEK293T results represent the means±SEM of 3 technical replicates. The HCO results represent the means±SEM of 3 independent experiments.

[2] = tested on: HEK293T cells; assay: CellTiter-Glo cytotoxicity assay in HEK293T cells; type: cell-based, human; details: 24 h, 25 μM and 8.3 μM
Protocol: as §1

[3] = molecular target: T1, RXFP2 (Homo sapiens, UniProt Q8WXD0); assay: Luciferase cAMP assay in HEK-CRE-Luc-RXFP2 cells; type: cell-based
T1 construct: expressed in transfected cells
T1 sequence (Q8WXD0 whole entry): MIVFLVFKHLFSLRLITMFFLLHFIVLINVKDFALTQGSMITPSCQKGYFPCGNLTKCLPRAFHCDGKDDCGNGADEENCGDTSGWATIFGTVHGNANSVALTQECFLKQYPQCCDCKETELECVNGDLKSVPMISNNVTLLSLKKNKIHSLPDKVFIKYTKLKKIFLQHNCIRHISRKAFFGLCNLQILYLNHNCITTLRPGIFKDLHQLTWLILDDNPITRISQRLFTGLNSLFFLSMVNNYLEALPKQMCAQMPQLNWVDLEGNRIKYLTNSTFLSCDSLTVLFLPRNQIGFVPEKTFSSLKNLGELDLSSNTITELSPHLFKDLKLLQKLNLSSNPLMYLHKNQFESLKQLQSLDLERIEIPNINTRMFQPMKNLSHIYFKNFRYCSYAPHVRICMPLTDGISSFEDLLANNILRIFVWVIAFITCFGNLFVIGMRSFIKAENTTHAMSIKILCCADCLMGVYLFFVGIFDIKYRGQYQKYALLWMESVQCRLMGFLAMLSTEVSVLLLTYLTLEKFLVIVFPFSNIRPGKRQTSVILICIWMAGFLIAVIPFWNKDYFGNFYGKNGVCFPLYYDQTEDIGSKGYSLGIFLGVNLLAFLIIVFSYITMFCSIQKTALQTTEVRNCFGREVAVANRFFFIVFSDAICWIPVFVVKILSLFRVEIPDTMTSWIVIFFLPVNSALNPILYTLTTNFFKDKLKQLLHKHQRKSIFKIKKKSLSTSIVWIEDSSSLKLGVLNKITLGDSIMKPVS
Protocol: A confirmatory cAMP assay was done to eliminate false positives using a HEK293T-CRE-Luc cell line stably transfected with RXFP2 (HEK-CRE-Luc-RXFP2), as this cell line expresses luciferase under the control of the cAMP response element (CRE). Activation of the RXFP2 receptor increases intracellular cAMP levels, inducing luciferase transcription in the nucleus. Thus, luciferase activity in these cells is proportional to cAMP accumulation. For this assay, cells were seeded in 96-well flat-bottom opaque plates at 20,000 cells/well in 60 μL/well of serum-free DMEM medium and allowed to attach overnight at 37° C., 5% CO2. The next morning, cells were treated with 1 μL/well of compound (25 μM-0.21 nM), 1 μM forskolin, or DMSO vehicle. Cells were also treated with 4 μL of INSL3 (100-0.01 nM) (Phoenix Pharmaceuticals, Burlingame, CA) or vehicle serum-free DMEM. Cells were incubated with the treatments for 3 hours at 37° C., 5% CO2, then rested 30 minutes at room temperature for equilibration, after which 65 μL/well of substrate AMPLITE™ Luciferase Reporter Gene Assay Kit (AAT Bioquest, Sunnyvale, CA) was added. Plates were incubated for 40 minutes at room temperature protected from light, and then luciferase output was read on a CLARIOstar plate reader (BMG Labtech, Germany). […]

[4] = molecular target: T1, RXFP2; assay: HTRF cAMP assay in HEK293T cells stably expressing RXFP2 (HEK-RXFP2); type: cell-based
Procedure, shortened: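 HEK-RXFP2 cells in serum-free DMEM were treated with compound up to 25 μM for 1 h at 37°C, and cAMP was read by HTRF immunoassay. Condition (a): 20,000 cells/well, 200 μM IBMX, normalized to 1 nM INSL3. Condition (b): 10,000 cells/well, 1 nM INSL3. Condition (c): 7,500 cells/well, no IBMX, 100 nM INSL3.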

[5] = molecular target: T2, WT RXFP2 (Homo sapiens, UniProt Q8WXD0); assay: HTRF cAMP assay in HEK293T cells transiently transfected with WT RXFP2; type: cell-based
T2 construct: using full-length human RXFP1 and RXFP2 receptor constructs; FLAG; expressed in transfected cells; host or cells: HEK293T (transient, Lipofectamine2000)
T2 sequence (Q8WXD0 whole entry): as above
Description: (§2) To further investigate the involvement of the RXFP2 extracellular and transmembrane domains in agonist activation of the receptor, two complementary chimeras were created using the RXFP1 receptor, which is not activated by the agonists of formula (I), to transiently transfect HEK293T cells and measured changes in cAMP induction using the HTRF assay.
(§3) Chimeric receptors were generated by IN-FUSION™ (Takara Bio USA, Inc., San Jose, CA) mutagenesis using full-length human RXFP1 and RXFP2 receptor constructs. Polymerase chain reaction (PCR) was performed using PfuTurbo high-fidelity DNA polymerase (Agilent Technologies, Santa Clara, CA) and overlapping primers with at least 15 bp sequence homology within the fusion site. PCR products were digested with Dpnl restricton enzyme at 37° C. overnight, run on a 0.8% agarose gel and purified using the GENEJET™ Gel extraction kit (Thermo Scientific, Waltham, MA). The purified DNA fragments were then ligated into the BamHI and XhoI pre-digested pcDNA3.1™/Zeo(+) AmpR mammalian expression vector using the In-Fusion HD enzyme premix (Clontech, Mountain View, CA) at 50° C. for 15 minutes, and the resulting product was used to transform Stellar competent cells (Takara Bio USA, Inc., San Jose, CA). The clones were fully sequenced to confirm the correct fusion of both receptor fragments. Chimera RXFP2-1 contained the extracellular domain of RXFP2 and the transmembrane domain of RXFP1. Accordingly, chimera RXFP1-2 contained the extracellular domain of RXFP1 and the transmembrane domain of RXFP2.
(§4) HEK293T cells were seeded in 6-well flat-bottom clear plates at 0.5 million cells/well in 2 mL/well of growth medium (DMEM, 10% FBS, 1× Pen/Strep) and allowed to attach overnight at 37° C. and 5% CO2. The next morning, cells were transfected with 2 μg of plasmid (chimeric receptors, WT RXFP2, or WT RXFP1) and 6 μl of Lipofectamine2000 (Invitrogen, Waltham, MA) in a total volume of 200 μl/well OPTI-MEM™ I (Thermo Fisher, Waltham, MA) reduced serum medium and allowed to incubate an additional 24 hours. The next day, transfected cells were seeded in 96-well flat-bottom opaque plates at 30,000 cells/well in 60 μL/well of serum-free DMEM medium and allowed to attach overnight at 37° C. at 5% CO2. The next morning, cells were treated with 1 μL/well of compound (25 μM-0.25 nM), 2 μM forskolin, or DMSO vehicle. Cells were also treated with 4 μL of positive control INSL3 (100-0.01 nM), Relaxin2 (100-10 nM), or vehicle (serum-free DMEM+IBMX). Plates were incubated for 1 hour at 37° C. and 5% CO2, after which kit cAMP-d2 and anti-cAMP antibody were added as previously described. Cells were incubated for 1 hour at room temperature, and then the signal was read on a CLARIOstar plate reader (BMG Labtech, Germany).

[6] = tested on: chimera RXFP1-2 (extracellular domain of RXFP1, transmembrane domain of RXFP2); assay: HTRF cAMP assay in HEK293T cells transiently transfected with chimera RXFP1-2; type: cell-based, human
Description: as §2, §3, §4

[7] = tested on: chimera RXFP2-1 (extracellular domain of RXFP2, transmembrane domain of RXFP1); assay: HTRF cAMP assay in HEK293T cells transiently transfected with chimera RXFP2-1; type: cell-based, human
Description: as §2, §3, §4

EC50 ([3]; 3 h treatment, 25 μM-0.21 nM) | Emax (% Eff vs. 10 nM INSL3) ([3]; relative to 10 nM INSL3 response) | EC50 ([4]; condition (b): 10,000 cells/well, IBMX 200 μM) | % EFF vs. 1 nM INSL3 (b) ([4]; condition (b): 10,000 cells/well, IBMX 200 μM, normalized to 1 nM INSL3 cAMP response) | EC50 ([4]; condition (c): 7,500 cells/well, IBMX omitted) | % EFF vs. 100 nM INSL3 (c) ([4]; condition (c): 7,500 cells/well, IBMX omitted, normalized to 100 nM INSL3 cAMP response) | Molecule | cytotoxicity ([1]; 25 μM) | cytotoxicity ([1]; lower concentrations than 25 μM) | cytotoxicity [2] | Emax ([5]; HEK-293T, normalized to 2 μM forskolin cAMP response as 100% activity) | EC50 ([5]; read-out: EC50 (μM or nM)) | cAMP response of chimera RXFP1-2 [6] | cAMP response of chimera RXFP2-1 [7] | Emax ([7]; RXFP2-1 chimera, normalized to 2 μM forskolin cAMP response as 100% activity) | EC50 ([7]; RXFP2-1 chimera, read-out: EC50 (μM or nM))
0.0246 µM | 109.6% | 0.0236 to 0.0502 µM | 149.80-150.94% | 0.101 to 0.319 µM | 45.16-86.79% | Cc1cc(-c2ccc3c(c2)C(=O)N2CCN(C(=O)COc4ccc(OC(F)(F)F)cc4Br)C[C@H]2C(=O)N3)cc(C(F)(F)F)c1 [Example 153, (S)-2-(2-(2-bromo-4-(trifluoromethoxy)phenoxy)acetyl)-8-(3-methyl-5-(trifluoromethyl)phenyl)-1,3,4,12a-tetrahydrobenzo[e]pyrazino[1,2-a][1,4]diazepine-6,12 (2H, 11H)-dione] | minimal toxicity | not toxic | some toxicity |  |  |  |  |  | 
 |  |  |  |  |  | I: PTPEMREKLCGHHFVRALVRVCGGPRWSTEA / II: AAATNPARYCCLSGCTQQDLLTLCPY (disulfide I:10-II:11, I:22-II:24, II:10-II:15) [INSL3] |  |  |  | 78.4 ± 11.2% | 0.0005 ± 0.00035 µM | did not respond | levels comparable to WT RXFP2 | 92.30 ± 21.82% | 0.00074 ± 0.00061 µM
